Measured values as given in patent US20190343908A1, “Therapeutic Combination for the Treatment of Cancer” (Nerium Biotechnology Inc., priority 2011, published 2019).

Tests used:
Assay type in all cases: cell-based
[1] = system: PC3 (human prostate cancer); assay: Sulforhodamine B viability assay, PC3
Source text: (§1) Three different viability assays were chosen to complement each other and yielded results dependent on concentration and cell line: the Methyl Tetrazolium dye assay, the Sulforhodamine B fluorescent dye assay, and the Crystal Violet dye assay.
(§2) The Sulforhodamine B and Crystal Violet assays provide information about protein and were used to complement the Methyl-Tetrazolium dye assay. […] It is used for the quantification of cellular proteins of cultured cells. The assay using Crystal Violet, a dye that binds electrostatically to proteins and stains DNA, provides a reliable, simple assay for measuring viability of cells.
(§3) The Methyl Tetrazolium, Sulforhodamine B, and Crystal Violet assays were used to assess cell viabilities. The incubation times were 24 hours, 48 hours, and 72 hours. The Nerium oleander extract Anvirzel™ (a hot water extract of oleander obtained from Salud Integral, Honduras) was tested in concentrations ranging from 0.01 ng/mL to 10 ng/mL.
(§4) Cells were detached by trypsinization (Trypsin-0.25% EDTA, Invitrogen, 25200-072) during the logarithmic phase of culture growth and plated in 96-well plates (18.000 cells/well) (Corning, Costar 359) in a final volume of 200 μl of medium per well. […] The absorbance was measured after 24 hours, 48 hours, and 72 hours of incubation.
For the Sulforhodamine B assay, 96-well plates were fixed by 10% trichloroacetic acid (Fluka, 91228) and were incubated at 4° C. for 1 hour. Afterwards, plates were rinsed with water and cells were stained with 0.4% Sulforhodamine B (Sigma, 341738), dissolved in 1% acetic acid (Carlo Ebra, 401422) for 15 minutes at room temperature (RT). The unbound stain was washed twice with 1% acetic acid. Finally, 10 mM Tris Buffer pH 10.5 (Sigma, T6791) was added to dissolve the dye.
(§5) The optical density of each plate was measured on a μQuant spectrophotometer and the data were analyzed with Gen5 software (μQuant Biomolecular Spectrophotometer MQX200 and Gen5™ Microplate Data Collection & Analysis software, BioTek® Instruments. Inc, April 2008). Absorbance was measured at 570 nm for all assays and a second wavelength was measured in order to subtract noise. For the Methyl-Tetrazolium assay this second wavelength was 630 nm and for the Sulforhodamine B and Crystal Violet assays it was 690 nm.

[2] = system: PC3 (human prostate cancer); assay: Crystal Violet viability assay, PC3
Source text: as §1, §2, §3, §4
For the Crystal Violet assay, the medium was removed from the 96-well plates, the plates rinsed with PBS (Sigma, P3813) and then the cells were […] by the addition of 10% formalin (MERCK, 1.04003.2500) for 20 minutes at RT. Formalin was removed and 0.25% aqueous crystal violet (Sigma, HT901), dissolved in water, was added for 10 minutes at RT. Unbound Crystal Violet was rinsed by washing with water and finally 33% acetic acid was added to dissolve the dye.
as §5

[3] = system: MCF-7 (human breast cancer); assay: Crystal Violet viability assay, MCF-7; parameters: key: absorbance at 570 nm (second wavelength subtracted)
Source text: as §2, §3, §4
[…] Formalin was removed and 0.25% aqueous crystal violet (Sigma, HT901), dissolved in water, was added for 10 minutes at RT. Unbound Crystal Violet was rinsed by washing with water and finally 33% acetic acid was added to dissolve the dye.
as §5

[4] = PC3 Run 1, 24 h, 0.1 μg/ml CDDP
[5] = PC3 Run 1, 24 h, 100 μg/ml CDDP
[6] = PC3 Run 1, 48 h, 0.1 μg/ml CDDP
[7] = PC3 Run 1, 48 h, 100 μg/ml CDDP
[8] = PC3 Run 1, 72 h, 0.1 μg/ml CDDP
[9] = PC3 Run 1, 72 h, 100 μg/ml CDDP
[10] = PC3 Run 2, 24 h, 0.1 μg/ml CDDP
[11] = PC3 Run 2, 24 h, 100 μg/ml CDDP
[12] = PC3 Run 2, 48 h, 0.1 μg/ml CDDP
[13] = PC3 Run 2, 48 h, 100 μg/ml CDDP
[14] = PC3 Run 2, 72 h, 0.1 μg/ml CDDP
[15] = PC3 Run 2, 72 h, 100 μg/ml CDDP
[16] = PC3 Run 3, 24 h, 0.1 μg/ml CDDP
[17] = PC3 Run 3, 24 h, 100 μg/ml CDDP
[18] = PC3 Run 3, 48 h, 0.1 μg/ml CDDP
[19] = PC3 Run 3, 48 h, 100 μg/ml CDDP
[20] = PC3 Run 3, 72 h, 0.1 μg/ml CDDP
[21] = PC3 Run 3, 72 h, 100 μg/ml CDDP

## N.N.[Cl][Pt][Cl] [cisplatin]
[1]; [4]
  SRB Average: 2.058
[1]; PC3 Run 1, 24 h, 1 μg/ml CDDP
  SRB Average: 1.352
[1]; PC3 Run 1, 24 h, 10 μg/ml CDDP
  SRB Average: 1.604
[1]; [5]
  SRB Average: 1.605
[1]; [6]
  SRB Average: 2.343
[1]; PC3 Run 1, 48 h, 1 μg/ml CDDP
  SRB Average: 1.677
[1]; PC3 Run 1, 48 h, 10 μg/ml CDDP
  SRB Average: 2.159
[1]; [7]
  SRB Average: 1.851
[1]; [8]
  SRB Average: 2.256
[1]; PC3 Run 1, 72 h, 1 μg/ml CDDP
  SRB Average: 2.227
[1]; PC3 Run 1, 72 h, 10 μg/ml CDDP
  SRB Average: 2.554
[1]; [9]
  SRB Average: 1.543
[1]; [10]
  SRB Average: 1.578
[1]; PC3 Run 2, 24 h, 1 μg/ml CDDP
  SRB Average: 1.469
[1]; PC3 Run 2, 24 h, 10 μg/ml CDDP
  SRB Average: 1.403
[1]; [11]
  SRB Average: 1.5
[1]; [12]
  SRB Average: 2.279
[1]; PC3 Run 2, 48 h, 1 μg/ml CDDP
  SRB Average: 2.066
[1]; PC3 Run 2, 48 h, 10 μg/ml CDDP
  SRB Average: 2.144
[1]; [13]
  SRB Average: 1.77
[1]; [14]
  SRB Average: 2.069
[1]; PC3 Run 2, 72 h, 1 μg/ml CDDP
  SRB Average: 1.64
[1]; PC3 Run 2, 72 h, 10 μg/ml CDDP
  SRB Average: 1.63
[1]; [15]
  SRB Average: 1.271
[1]; [16]
  SRB Average: 1.595
[1]; PC3 Run 3, 24 h, 1 μg/ml CDDP
  SRB Average: 1.326
[1]; PC3 Run 3, 24 h, 10 μg/ml CDDP
  SRB Average: 1.24
[1]; [17]
  SRB Average: 1.125
[1]; [18]
  SRB Average: 1.52
[1]; PC3 Run 3, 48 h, 1 μg/ml CDDP
  SRB Average: 1.1
[1]; PC3 Run 3, 48 h, 10 μg/ml CDDP
  SRB Average: 1.474
[1]; [19]
  SRB Average: 1.153
[1]; [20]
  SRB Average: 1.643
[1]; PC3 Run 3, 72 h, 1 μg/ml CDDP
  SRB Average: 1.069
[1]; PC3 Run 3, 72 h, 10 μg/ml CDDP
  SRB Average: 1.122
[1]; [21]
  SRB Average: 0.839
[2]; [4]
  CVE Average: 0.73
[2]; PC3 Run 1, 24 h, 1 μg/ml CDDP
  CVE Average: 0.368
[2]; PC3 Run 1, 24 h, 10 μg/ml CDDP
  CVE Average: 0.548
[2]; [5]
  CVE Average: 0.337
[2]; [6]
  CVE Average: 0.938
[2]; PC3 Run 1, 48 h, 1 μg/ml CDDP
  CVE Average: 0.483
[2]; PC3 Run 1, 48 h, 10 μg/ml CDDP
  CVE Average: 0.706
[2]; [7]
  CVE Average: 0.619
[2]; [8]
  CVE Average: 1.091
[2]; PC3 Run 1, 72 h, 1 μg/ml CDDP
  CVE Average: 0.415
[2]; PC3 Run 1, 72 h, 10 μg/ml CDDP
  CVE Average: 0.64
[2]; [9]
  CVE Average: 0.421
[2]; [10]
  CVE Average: 0.489
[2]; PC3 Run 2, 24 h, 1 μg/ml CDDP
  CVE Average: 0.238
[2]; PC3 Run 2, 24 h, 10 μg/ml CDDP
  CVE Average: 0.498
[2]; [11]
  CVE Average: 0.309
[2]; [12]
  CVE Average: 0.714
[2]; PC3 Run 2, 48 h, 1 μg/ml CDDP
  CVE Average: 0.393
[2]; PC3 Run 2, 48 h, 10 μg/ml CDDP
  CVE Average: 0.694
[2]; [13]
  CVE Average: 0.419
[2]; [14]
  CVE Average: 0.76
[2]; PC3 Run 2, 72 h, 1 μg/ml CDDP
  CVE Average: 0.284
[2]; PC3 Run 2, 72 h, 10 μg/ml CDDP
  CVE Average: 0.526
[2]; [15]
  CVE Average: 0.316
[2]; [16]
  CVE Average: 0.653
[2]; PC3 Run 3, 24 h, 1 μg/ml CDDP
  CVE Average: 0.551
[2]; PC3 Run 3, 24 h, 10 μg/ml CDDP
  CVE Average: 0.638
[2]; [17]
  CVE Average: 0.301
[2]; [18]
  CVE Average: 0.599
[2]; PC3 Run 3, 48 h, 1 μg/ml CDDP
  CVE Average: 0.4
[2]; PC3 Run 3, 48 h, 10 μg/ml CDDP
  CVE Average: 0.599
[2]; [19]
  CVE Average: 0.367
[2]; [20]
  CVE Average: 0.927
[2]; PC3 Run 3, 72 h, 1 μg/ml CDDP
  CVE Average: 1.001
[2]; PC3 Run 3, 72 h, 10 μg/ml CDDP
  CVE Average: 0.666
[2]; [21]
  CVE Average: 0.282
[3]; MCF-7, Run 2, 24 h, 0.1 μg/ml CDDP
  CVE Average: 0.71
[3]; MCF-7, Run 2, 24 h, 1 μg/ml CDDP
  CVE Average: 0.192
[3]; MCF-7, Run 2, 24 h, 10 μg/ml CDDP
  CVE Average: 0.612
[3]; MCF-7, Run 2, 24 h, 100 μg/ml CDDP
  CVE Average: 0.288
[3]; MCF-7, Run 2, 48 h, 0.1 μg/ml CDDP
  CVE Average: 0.664
[3]; MCF-7, Run 2, 48 h, 1 μg/ml CDDP
  CVE Average: 0.239
[3]; MCF-7, Run 2, 48 h, 10 μg/ml CDDP
  CVE Average: 0.24
[3]; MCF-7, Run 2, 48 h, 100 μg/ml CDDP
  CVE Average: 0.221
[3]; MCF-7, Run 2, 72 h, 0.1 μg/ml CDDP
  CVE Average: 0.678
[3]; MCF-7, Run 2, 72 h, 1 μg/ml CDDP
  CVE Average: 0.151
[3]; MCF-7, Run 2, 72 h, 100 μg/ml CDDP
  CVE Average: 0.147
[3]; MCF-7, Run 3, 24 h, 0.1 μg/ml CDDP
  CVE Average: 0.454
[3]; MCF-7, Run 3, 24 h, 1 μg/ml CDDP
  CVE Average: 0.183
[3]; MCF-7, Run 3, 24 h, 10 μg/ml CDDP
  CVE Average: 0.307
[3]; MCF-7, Run 3, 48 h, 0.1 μg/ml CDDP
  CVE Average: 0.811
[3]; MCF-7, Run 3, 48 h, 1 μg/ml CDDP
  CVE Average: 0.871
[3]; MCF-7, Run 3, 48 h, 10 μg/ml CDDP
  CVE Average: 0.769
[3]; MCF-7, Run 3, 48 h, 100 μg/ml CDDP
  CVE Average: 0.439
[3]; MCF-7, Run 3, 72 h, 0.1 μg/ml CDDP
  CVE Average: 1.312
[3]; MCF-7, Run 3, 72 h, 1 μg/ml CDDP
  CVE Average: 0.51
[3]; MCF-7, Run 3, 72 h, 10 μg/ml CDDP
  CVE Average: 0.449
[3]; MCF-7, Run 3, 72 h, 100 μg/ml CDDP
  CVE Average: 0.253
[3]; MCF-7 Run 1, 24 h, 0.1 μg/ml CDDP
  CVE Average: 0.978
[3]; MCF-7 Run 1, 24 h, 1 μg/ml CDDP
  CVE Average: 0.376
[3]; MCF-7 Run 1, 24 h, 10 μg/ml CDDP
  CVE Average: 0.468
[3]; MCF-7 Run 1, 24 h, 100 μg/ml CDDP
  CVE Average: 0.285
[3]; MCF-7 Run 1, 48 h, 0.1 μg/ml CDDP
  CVE Average: 1.112
[3]; MCF-7 Run 1, 48 h, 10 μg/ml CDDP
  CVE Average: 0.303
[3]; MCF-7 Run 1, 48 h, 100 μg/ml CDDP
  CVE Average: 0.153
[3]; MCF-7 Run 1, 72 h, 0.1 μg/ml CDDP
  CVE Average: 1.632
[3]; MCF-7 Run 1, 72 h, 1 μg/ml CDDP
  CVE Average: 0.325
[3]; MCF-7 Run 1, 72 h, 10 μg/ml CDDP
  CVE Average: 0.237
[3]; MCF-7 Run 1, 72 h, 100 μg/ml CDDP
  CVE Average: 0.284
